Source: patent US9469650B2, “Melampomagnolide B derivatives” (BOARD OF TRUSTEES OF THE UNIVERSITY OF ARKANSAS, priority 2013, dated 2016)

Tests used:
[1] = system: UO-31; assay: panel of 60 human tumor cell lines, growth inhibition (Renal Cancer); conditions: UO-31
[2] = system: SF-539; assay: panel of 60 human tumor cell lines, growth inhibition (CNS Cancer); conditions: SF-539
[3] = system: ACHN; assay: panel of 60 human tumor cell lines, growth inhibition (Renal Cancer)
[4] = system: HCT-116; assay: panel of 60 human tumor cell lines, growth inhibition (Colon Cancer); conditions: HCT-116
[5] = system: HS 578T; assay: panel of 60 human tumor cell lines, growth inhibition (Breast Cancer); conditions: HS 578T
[6] = system: 786-0; assay: panel of 60 human tumor cell lines, growth inhibition (Renal Cancer); conditions: 786-0
[7] = system: OVCAR-5; assay: panel of 60 human tumor cell lines, growth inhibition (Ovarian Cancer); conditions: OVCAR-5
[8] = system: SF-268; assay: panel of 60 human tumor cell lines, growth inhibition (CNS Cancer); conditions: SF-268
[9] = system: T-47D; assay: panel of 60 human tumor cell lines, growth inhibition (Breast Cancer); conditions: T-47D

SMILES: C=C1C(=O)O[C@H]2[C@H]1CC/C(COC(=O)NC)=C\CC[C@@]1(C)O[C@@H]21 [JVM 2-57]
- Percent Growth ([1]; Log10 Concentration −4.0): −93%
- Percent Growth ([1]; Log10 Concentration −5.0): 7%
- Percent Growth ([1]; Log10 Concentration −6.0): 82%
- Percent Growth ([1]; Log10 Concentration −7.0): 88%
- Percent Growth ([1]; Log10 Concentration −8.0): 84%
- GI50 ([1]; NCI five dose): 2.63 µM
- TGI ([1]; NCI five dose): 1.16E−5
- Percent Growth ([2]; Log10 Concentration −4.0): −92%
- Percent Growth ([2]; Log10 Concentration −5.0): 22%
- Percent Growth ([2]; Log10 Concentration −6.0): 88%
- Percent Growth ([2]; Log10 Concentration −7.0): 91%
- Percent Growth ([2]; Log10 Concentration −8.0): 97%
- GI50 ([2]; NCI five dose): 3.8 µM
- TGI ([2]; NCI five dose): 1.57E−5
- Percent Growth ([3]; Log10 Concentration −4.0): −83%
- Percent Growth ([3]; Log10 Concentration −5.0): 7%
- Percent Growth ([3]; Log10 Concentration −6.0): 84%
- Percent Growth ([3]; Log10 Concentration −7.0): 93%
- Percent Growth ([3]; Log10 Concentration −8.0): 98%
- GI50 ([3]; NCI five dose): 2.78 µM
- TGI ([3]; NCI five dose): 1.19E−5
- Percent Growth ([4]; Log10 Concentration −4.0): −98%
- Percent Growth ([4]; Log10 Concentration −5.0): 3%
- Percent Growth ([4]; Log10 Concentration −6.0): 88%
- Percent Growth ([4]; Log10 Concentration −7.0): 93%
- Percent Growth ([4]; Log10 Concentration −8.0): 102%
- GI50 ([4]; NCI five dose): 2.8 µM
- TGI ([4]; NCI five dose): 1.07E−5
- Percent Growth ([5]; Log10 Concentration −4.0): 7%
- Percent Growth ([5]; Log10 Concentration −5.0): 65%
- Percent Growth ([5]; Log10 Concentration −6.0): 87%
- Percent Growth ([5]; Log10 Concentration −7.0): 92%
- Percent Growth ([5]; Log10 Concentration −8.0): 91%
- GI50 ([5]; NCI five dose): 18.4 µM
- TGI ([5]; NCI five dose): >1.00E−4
- Percent Growth ([6]; Log10 Concentration −4.0): −88%
- Percent Growth ([6]; Log10 Concentration −5.0): 38%
- Percent Growth ([6]; Log10 Concentration −6.0): 93%
- Percent Growth ([6]; Log10 Concentration −7.0): 90%
- Percent Growth ([6]; Log10 Concentration −8.0): 96%
- GI50 ([6]; NCI five dose): 5.94 µM
- TGI ([6]; NCI five dose): 1.99E−5
- Percent Growth ([7]; Log10 Concentration −4.0): −90%
- Percent Growth ([7]; Log10 Concentration −5.0): 24%
- Percent Growth ([7]; Log10 Concentration −6.0): 86%
- Percent Growth ([7]; Log10 Concentration −7.0): 84%
- Percent Growth ([7]; Log10 Concentration −8.0): 93%
- GI50 ([7]; NCI five dose): 3.82 µM
- TGI ([7]; NCI five dose): 1.62E−5
- Percent Growth ([8]; Log10 Concentration −4.0): −73%
- Percent Growth ([8]; Log10 Concentration −5.0): 66%
- Percent Growth ([8]; Log10 Concentration −6.0): 92%
- Percent Growth ([8]; Log10 Concentration −7.0): 90%
- Percent Growth ([8]; Log10 Concentration −8.0): 92%
- GI50 ([8]; NCI five dose): 13 µM
- TGI ([8]; NCI five dose): 2.98E−5
- Percent Growth ([9]; Log10 Concentration −4.0): −80%
- Percent Growth ([9]; Log10 Concentration −5.0): −4%
- Percent Growth ([9]; Log10 Concentration −6.0): 81%
- Percent Growth ([9]; Log10 Concentration −7.0): 86%
- Percent Growth ([9]; Log10 Concentration −8.0): 94%
- GI50 ([9]; NCI five dose): 2.32 µM
- TGI ([9]; NCI five dose): 9.04E−6
